In patent US10000791B2, “Measurement method for human pancreatic lipase activity” (ASAHI KASEI PHARMA CORPORATION, priority 2013, dated 2018):

Columns and labels:
Assay type in all cases: biochemical
human pancreatic lipase [1] = test: pH dependence of human pancreatic lipase activity in the presence of bile acids (diglyceride substrate, UV method); settings: for pH for giving a maximum value of the activity (apparent optimum pH) / degree of the activation of human pancreatic lipase: pooled serum; for pH for giving a maximum value of the activity (apparent optimum pH): non-conjugated bile acid singly, pH 7.2-8.5; for degree of the activation of human pancreatic lipase: conjugated bile acid singly, 40 mmol/L in R-1
Procedure: After weighing 1,2-dioleoyl glycerol (DODG) (manufactured by Nippon Fine Chemical Co., Ltd.) to attain a concentration of 9.32 mmol/L when dissolved, 1% polyoxyethylene (10) nonyl phenyl ether (NPE) (manufactured by Wako Pure Chemical Industries Ltd.) containing 1.66 mmol/L of MES (manufactured by Dojindo Laboratories) was added thereto to be dissolved therein by stirring at 37° C. for 2 hours, and the resultant was allowed to stand still in ice for 2 hours or more. The thus obtained solution was used as a substrate original liquid.
The above-described diglyceride original liquid was used for preparing a “substrate stock solution” having the following composition:
A “first reaction solution (R-1)” having the following composition was prepared:
A “second reaction solution (R-2)” having the following composition was prepared:
A “second reaction solution (R-2) for sample blank” having the following composition was prepared:
(§1) A mixture of the substrate stock solution and the R-1 in a proportion of 1:2 was used as a first reagent. The R-2 was directly used as a second reagent. As a sample, pooled serum or a control sample (a control containing a pancreatic lipase) was used. A proportion in amount among the sample, the first reagent and the second reagent was set as sample:first reagent:second reagent of 0.01 ml:0.18 ml:0.06 ml. The sample was added to the first reagent, the resultant mixture was heated at 37° C. for 5 minutes, the second reagent was added thereto, and a change rate of an absorbance at 340 nm based on reduced NADP was obtained at 37° C. from 3 minutes after the addition of the second reagent to 4 minutes after the addition, and then, the lipase activity was calculated by using a molecular extinction coefficient of 6300 L/mol·cm of the reduced NADP. Besides, as a sample blank, saline was used instead of a sample, an absorbance was measured by using the reagent for sample blank obtained by removing MGLPII from the second reagent, and a difference between the thus measured two values was defined as an enzyme activity value. For the measurement, Hitachi automatic analyzer Model H7170 or H7080 was used.
As a conjugated bile acid to be added to the R-1, sodium taurodeoxycholate (NaTDCA), sodium glycodeoxycholate (NaGDCA), sodium glycochenodeoxycholate (NaGCDCA), sodium taurochenodeoxycholate (NaTCDCA), sodium glycocholate (NaGCA), sodium taurocholate (NaTCA) and sodium tauroursodeoxycholate (NaTUDCA) all in a concentration of 40 mmol/L were selected, the R-1 was adjusted, by using BES (manufactured by Dojindo Laboratories) respectively to pH 6.8, 7.0, 7.2, 7.4, 7.8, and 8.0, and the human pancreatic lipase activity was measured by using these. The pH of the R-2 was adjusted to be equal to that of the R-1.
It is noted that the concentration of each non-conjugated bile acid was set to be 24 mmol/L in the R-1. Besides, BES was used for adjusting pH to 7.2, 7.6, 7.8 and 8.0, and Bicine was used for adjusting pH to 8.2 and 8.5.
(§2) Similarly to Example 1, a mixture of the substrate stock solution and the R-1 in a proportion of 1:2 was used as a first reagent. Except for this, the measurement was performed in the same manner as in Example 1.
Besides, NaTCA was also combined with a conjugated bile acid, NaTDCA, to examine the pH for giving a maximum value of the human pancreatic lipase activity (the apparent optimum pH). It is noted that a BES buffer was used for adjusting pH to 6.9, 7.2 and 7.7, and a Bicine buffer was used for adjusting pH to 7.95 and 8.2. In each of the combinations of NaGCA/NaDCA, NaTCA/NaDCA, NaTUDCA/NaDCA and NaTCA/NaTDCA, the concentration of each bile acid was set to 20 mmol/L in the R-1. With respect to the combination of NaTCA and NaTDCA, a concentration of 40 mmol/L of NaTDCA was used as a control.
The compositions of the reagents and the measurement operation were the same as those of Example 2.

human pancreatic lipase [2] = test: lipase activity measured in control, normal and heparin-administered samples with each reagent (1,2-dioleoyl glycerol, UV method; Liquitech Lipase Color II for verification); set-up: lipase activity relative to (1) comparative example NaDCA (Table 1): concentration or dose not given beside the values; settings: for lipase activity (Table 1): NaDCA pH 8.15, other bile salts pH 7.0; for lipase activity relative to (1) comparative example NaDCA (Table 1): pH 7.0; for lipase activity (Table 2): comparative example pH 8.15, present example pH 7.1, bile acid 40 mmol/L in R-1
Procedure: as §1, §2
A commercially available reagent for a resorufin colorimetric method, “Liquitech Lipase Color II” manufactured by Roche Diagnostics using 1,2-O-dilauryl-rac-glycerol-3-glutaric acid-(6-methylresorufin)ester (DGGR), which is regarded not to be influenced by a non-pancreatic lipase, such as a lipoprotein lipase or a hepatic lipase, appearing in blood due to administration of heparin, was used for verifying the effect of the present example. “Liquitech Lipase Color II” was used in accordance with the package insert, and a special calibrator was used for calculating the enzyme activity. […] The concentration of each bile acid used in the present example was set to be the same as that in the comparative example.
As samples, a control, non-heparin-administered samples (normal samples), and heparin-administered samples were used.
The compositions of the reagents were the same as those of Example 2. As a comparative example, NaDCA (in a concentration of 40 mmol/L in the R-1) was used as the bile acid, and the reaction solution was adjusted to pH 8.15 (by the Bicine buffer) for measuring a heparin-administered sample.
It is noted that CRM-001b containing a human pancreatic recombinant lipase dissolved not in distilled water but in a pooled serum was used as the calibrator to calculate the lipase activity.
As a bile acid of the present example and a reference example, NaTDCA was selected, and the pH dependence with the pH of a reaction solution changed in a range of 6.2 to 7.6 was examined. It is noted that a case of pH 7.6 was used as the reference example. An MES buffer was used for adjusting pH to 6.2 and 6.4, and the BES buffer was used for adjusting the other pHs. As samples, (six) control samples (controls each containing a pancreatic lipase) and (nine) heparin-administered samples were used. As a comparative example, NaDCA (in a concentration of 40 mmol/L in the R-1) was used as the bile acid, and a reaction solution having pH 8.15 (the Bicine buffer) was used. Besides, “Liquitech Lipase Color II” manufactured by Roche Diagnostics was used for verifying the effect of the present example.

human pancreatic lipase [3] = test: pH dependence of human pancreatic lipase activity in the presence of bile acids (diglyceride substrate, UV method); settings: human pooled serum; pH changed between 7.4 and 8.4 (Example 12)
Target sequence in this assay (P16233 17-465): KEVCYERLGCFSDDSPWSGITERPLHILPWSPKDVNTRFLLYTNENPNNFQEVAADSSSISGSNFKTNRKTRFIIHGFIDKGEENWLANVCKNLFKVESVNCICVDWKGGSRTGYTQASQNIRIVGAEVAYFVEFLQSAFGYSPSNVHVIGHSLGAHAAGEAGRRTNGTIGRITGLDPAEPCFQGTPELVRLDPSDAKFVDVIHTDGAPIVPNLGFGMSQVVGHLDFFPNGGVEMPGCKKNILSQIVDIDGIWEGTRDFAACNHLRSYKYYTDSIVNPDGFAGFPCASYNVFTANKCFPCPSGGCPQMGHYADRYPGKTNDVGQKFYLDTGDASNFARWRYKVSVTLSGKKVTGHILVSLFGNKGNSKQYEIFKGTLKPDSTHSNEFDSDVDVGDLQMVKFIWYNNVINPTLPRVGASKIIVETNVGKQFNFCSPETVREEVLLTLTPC
Target sequence in this assay (P02703 23-112 partner): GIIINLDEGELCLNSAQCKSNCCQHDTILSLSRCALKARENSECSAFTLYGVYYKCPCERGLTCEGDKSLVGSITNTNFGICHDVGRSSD

In the case of `C[C@H](CCC(=O)[O-])[C@H]1CC[C@H]2[C@@H]3[C@H](O)C[C@@H]4C[C@H](O)CC[C@]4(C)[C@H]3C[C@H](O)[C@]12C.[Na+]` [NaCA, sodium cholate], the “signal of human pancreatic lipase activity” value (human pancreatic lipase [1]; 24 mmol/L in R-1, compared with NaDCA) is reported as “merely a slight signal”.

`C[C@H](CCC(=O)[O-])[C@H]1CC[C@H]2[C@@H]3[C@H](O)C[C@@H]4C[C@H](O)CC[C@]4(C)[C@H]3CC[C@]12C.[Na+]` [NaCDCA, sodium chenodeoxycholate] was tested, and the “pH for giving a maximum value of the activity (apparent optimum pH)” value (human pancreatic lipase [1]; 24 mmol/L in R-1) was “about 7.7”.

With `C[C@H](CCC(=O)NCC(=O)[O-])[C@H]1CC[C@H]2[C@@H]3[C@H](O)C[C@@H]4C[C@H](O)CC[C@]4(C)[C@H]3C[C@H](O)[C@]12C.[Na+]` [NaGCA, sodium glycocholate] the “degree of the activation of human pancreatic lipase” value (from here on “degree”) (human pancreatic lipase [1]) was “below detection limit”.

For `C[C@H](CCC(=O)NCC(=O)[O-])[C@H]1CC[C@H]2[C@@H]3CC[C@@H]4C[C@H](O)CC[C@]4(C)[C@H]3C[C@H](O)[C@]12C.[Na+]` [NaGDCA, sodium glycodeoxycholate], the “lipase activity (Table 1)” value (human pancreatic lipase [2]; Normal sample 1) was 47.1 U/L, the “lipase activity relative to (1) comparative example NaDCA (Table 1)” value (human pancreatic lipase [2]; Normal sample 1) was 120.6% and the “lipase activity (Table 1)” value (human pancreatic lipase [2]; Normal sample 2) was 91.5 U/L. For the same compound, the “lipase activity relative to (1) comparative example NaDCA (Table 1)” value (human pancreatic lipase [2]; Normal sample 2) was 96.3%, the “lipase activity (Table 1)” value (human pancreatic lipase [2]; Normal sample 3) was 49.7 U/L and the “lipase activity relative to (1) comparative example NaDCA (Table 1)” value (human pancreatic lipase [2]; Normal sample 3) was 106.5%. For the same compound, the “lipase activity (Table 1)” value (human pancreatic lipase [2]; Normal sample 4) was 32.9 U/L, the “lipase activity relative to (1) comparative example NaDCA (Table 1)” value (human pancreatic lipase [2]; Normal sample 4) was 75.8% and the “lipase activity (Table 1)” value (human pancreatic lipase [2]; Normal sample 5) was 36.2 U/L. For the same compound, the “lipase activity relative to (1) comparative example NaDCA (Table 1)” value (human pancreatic lipase [2]; Normal sample 5) was 89.0%, the “lipase activity (Table 1)” value (human pancreatic lipase [2]; sample Heparin 1) was 39.1 U/L and the “lipase activity relative to (1) comparative example NaDCA (Table 1)” value (human pancreatic lipase [2]; sample Heparin 1) was 50.9%. For the same compound, the “lipase activity (Table 1)” value (human pancreatic lipase [2]; sample Heparin 2) was 47.5 U/L, the “lipase activity relative to (1) comparative example NaDCA (Table 1)” value (human pancreatic lipase [2]; sample Heparin 2) was 54.8% and the “lipase activity (Table 1)” value (human pancreatic lipase [2]; sample Heparin 3) was 36.9 U/L. The “lipase activity relative to (1) comparative example NaDCA (Table 1)” value (human pancreatic lipase [2]; sample Heparin 3) was 32.7%, the “lipase activity (Table 1)” value (human pancreatic lipase [2]; sample Heparin 4) was 28.2 U/L and the “lipase activity relative to (1) comparative example NaDCA (Table 1)” value (human pancreatic lipase [2]; sample Heparin 4) was 27.8%. For the same compound, the “lipase activity (Table 1)” value (human pancreatic lipase [2]; sample Heparin 5) was 23.8 U/L, the “lipase activity relative to (1) comparative example NaDCA (Table 1)” value (human pancreatic lipase [2]; sample Heparin 5) was 34.8% and the “lipase activity (Table 1)” value (human pancreatic lipase [2]; sample Heparin 6) was 28.9 U/L. The “lipase activity relative to (1) comparative example NaDCA (Table 1)” value (human pancreatic lipase [2]; sample Heparin 6) was 41.8%, the “lipase activity (Table 1)” value (human pancreatic lipase [2]; sample Heparin 7) was 58.0 U/L and the “lipase activity relative to (1) comparative example NaDCA (Table 1)” value (human pancreatic lipase [2]; sample Heparin 7) was 42.0%. The “lipase activity (Table 1)” value (human pancreatic lipase [2]; sample Heparin 8) was 43.9 U/L, the “lipase activity relative to (1) comparative example NaDCA (Table 1)” value (human pancreatic lipase [2]; sample Heparin 8) was 34.8% and the “lipase activity (Table 1)” value (human pancreatic lipase [2]; sample Heparin 9) was 81.0 U/L. The “lipase activity relative to (1) comparative example NaDCA (Table 1)” value (human pancreatic lipase [2]; sample Heparin 9) was 48.0%, the “lipase activity (Table 1)” value (human pancreatic lipase [2]; sample PRECINORM) was 52.2 U/L and the “lipase activity relative to (1) comparative example NaDCA (Table 1)” value (human pancreatic lipase [2]; sample PRECINORM) was 102.4%. The “lipase activity (Table 1)” value (human pancreatic lipase [2]; sample PRECIPATH) was 124.6 U/L and the “lipase activity relative to (1) comparative example NaDCA (Table 1)” value (human pancreatic lipase [2]; sample PRECIPATH) was 97.4%.

For `C[C@H](CCC(=O)NCCS(=O)(=O)O)[C@H]1CC[C@H]2[C@@H]3[C@H](O)C[C@@H]4C[C@H](O)CC[C@]4(C)[C@H]3C[C@H](O)[C@]12C` [NaTCA, sodium taurocholate], the “degree” value (human pancreatic lipase [1]) was “below detection limit”.

In the case of `C[C@H](CCC(=O)NCCS(=O)(=O)[O-])[C@H]1CC[C@H]2[C@@H]3[C@@H](O)C[C@@H]4C[C@H](O)CC[C@]4(C)[C@H]3CC[C@]12C.[Na+]` [NaTCDCA, sodium taurochenodeoxycholate], the “lipase activity (Table 2)” value (human pancreatic lipase [2]; sample Heparin 1) is reported as 54.5 U/L, the “lipase activity (Table 2)” value (human pancreatic lipase [2]; sample Heparin 2) is reported as 31.7 U/L and the “lipase activity (Table 2)” value (human pancreatic lipase [2]; sample Heparin 3) is reported as 48.1 U/L.

`C[C@H](CCC(=O)NCCS(=O)(=O)[O-])[C@H]1CC[C@H]2[C@@H]3[C@@H](O)C[C@@H]4C[C@H](O)CC[C@]4(C)[C@H]3CC[C@]12C.[Na+]` [NaTUDCA, sodium tauroursodeoxycholate] was tested, and the “degree” value (human pancreatic lipase [1]) was “below detection limit”.

sodium deoxycholate [NaDCA] was tested, and the “pH for giving a maximum value of the activity (apparent optimum pH)” value (human pancreatic lipase [1]; 24 mmol/L in R-1) was “about 8.2”, the “lipase activity (Table 1)” value (human pancreatic lipase [2]; Normal sample 1) was 39.1 U/L and the “lipase activity (Table 1)” value (human pancreatic lipase [2]; Normal sample 2) was 95.0 U/L. For the same compound, the “lipase activity (Table 1)” value (human pancreatic lipase [2]; Normal sample 3) was 46.6 U/L, the “lipase activity (Table 1)” value (human pancreatic lipase [2]; Normal sample 4) was 43.5 U/L and the “lipase activity (Table 1)” value (human pancreatic lipase [2]; Normal sample 5) was 40.7 U/L. The “lipase activity (Table 1)” value (human pancreatic lipase [2]; sample Heparin 1) was 76.8 U/L, the “lipase activity (Table 1)” value (human pancreatic lipase [2]; sample Heparin 2) was 86.7 U/L and the “lipase activity (Table 1)” value (human pancreatic lipase [2]; sample Heparin 3) was 112.9 U/L. The “lipase activity (Table 1)” value (human pancreatic lipase [2]; sample Heparin 4) was 101.4 U/L, the “lipase activity (Table 1)” value (human pancreatic lipase [2]; sample Heparin 5) was 68.5 U/L and the “lipase activity (Table 1)” value (human pancreatic lipase [2]; sample Heparin 6) was 69.2 U/L. For the same compound, the “lipase activity (Table 1)” value (human pancreatic lipase [2]; sample Heparin 7) was 138.3 U/L, the “lipase activity (Table 1)” value (human pancreatic lipase [2]; sample Heparin 8) was 126.0 U/L and the “lipase activity (Table 1)” value (human pancreatic lipase [2]; sample Heparin 9) was 168.8 U/L. For the same compound, the “lipase activity (Table 1)” value (human pancreatic lipase [2]; sample PRECINORM) was 51.0 U/L, the “lipase activity (Table 1)” value (human pancreatic lipase [2]; sample PRECIPATH) was 128.0 U/L and the “pH for giving a maximum value of the human pancreatic lipase activity” value (human pancreatic lipase [3]) was “about 8.2”.
